# pIC50: −log10 of the molar value.
# Key:
# [1] = target: T1, human TrxR1 Sec498Cys mutant enzyme (Homo sapiens, UniProt Q16881, U648C); test: DTNB reduction assay with recombinant mutant enzyme; format: biochemical
# T1 sequence (Q16881 151-649 U648C): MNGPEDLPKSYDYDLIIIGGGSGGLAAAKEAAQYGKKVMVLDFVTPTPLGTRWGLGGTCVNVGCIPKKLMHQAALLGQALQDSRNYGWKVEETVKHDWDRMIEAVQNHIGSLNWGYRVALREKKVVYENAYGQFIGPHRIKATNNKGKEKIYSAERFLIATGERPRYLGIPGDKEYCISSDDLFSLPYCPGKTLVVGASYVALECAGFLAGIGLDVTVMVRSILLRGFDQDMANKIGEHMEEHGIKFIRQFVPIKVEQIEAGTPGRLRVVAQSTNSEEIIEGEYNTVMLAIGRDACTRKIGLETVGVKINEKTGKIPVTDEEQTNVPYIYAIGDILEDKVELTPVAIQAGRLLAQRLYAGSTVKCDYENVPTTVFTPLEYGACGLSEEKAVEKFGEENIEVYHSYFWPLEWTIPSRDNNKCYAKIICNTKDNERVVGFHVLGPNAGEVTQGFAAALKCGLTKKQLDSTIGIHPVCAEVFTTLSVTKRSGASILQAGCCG
# [2] = target: T2, thioredoxin reductase 1 (TrxR1) (Rattus norvegicus, UniProt O89049); test: DTNB reduction assay with purified NADPH-reduced enzyme; format: biochemical
# T2 sequence (O89049 1-499): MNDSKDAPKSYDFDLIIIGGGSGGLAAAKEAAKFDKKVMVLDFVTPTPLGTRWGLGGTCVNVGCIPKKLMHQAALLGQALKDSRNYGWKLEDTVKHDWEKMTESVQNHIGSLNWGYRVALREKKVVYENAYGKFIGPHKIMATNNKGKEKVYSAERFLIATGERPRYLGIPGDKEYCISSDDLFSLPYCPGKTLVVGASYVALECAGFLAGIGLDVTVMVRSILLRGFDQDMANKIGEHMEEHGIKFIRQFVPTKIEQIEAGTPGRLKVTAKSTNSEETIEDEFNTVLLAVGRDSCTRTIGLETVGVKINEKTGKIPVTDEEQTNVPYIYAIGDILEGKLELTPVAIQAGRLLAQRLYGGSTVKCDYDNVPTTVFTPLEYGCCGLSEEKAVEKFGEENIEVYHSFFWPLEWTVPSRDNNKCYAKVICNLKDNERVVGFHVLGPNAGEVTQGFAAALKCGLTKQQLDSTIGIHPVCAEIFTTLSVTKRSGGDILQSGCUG
smiles,measurement,setting,value
"CC(=O)N=C1C=CC(=O)C=C1 [NAPQI, N-acetyl-p-benzoquinone imine]",pIC50,[1],4.77
same,pIC50,[2],7.64

# Source: paper PMC4033643 (Chemical research in toxicology, 2014)
